Data published in article PMC9959048, “Lipidation of Naturally Occurring α-Helical Antimicrobial Peptides as a Promising Strategy for Drug Design” (International Journal of Molecular Sciences, 2023).
Converted amounts (≈) assume the structure as drawn. Like-named read-outs stand apart in the source and are kept apart here. Residues, ends and D or L forms follow the SMILES beside them. *: point of attachment. Palmitoyl = CCCCCCCCCCCCCCCC(=O)*; Myristoyl = CCCCCCCCCCCCCC(=O)*; Lauroyl = CCCCCCCCCCCC(=O)*; Decanoyl = CCCCCCCCCC(=O)*

Columns and labels:
S. aureus PCM2054 = format: cell-based, Staphylococcus aureus
Procedure: (§1) The evaluation of the antimicrobial activity of the synthesized lipopeptides was performed against the following reference bacterial and fungal strains: Staphylococcus aureus PCM 1650, Staphylococcus aureus PCM 2054, Staphylococcus epidermidis PCM 521, Staphylococcus epidermidis PCM 2118, Escherichia coli PCM 2057, Candida albicans PCM 2566, Candida glabrata CCM 8270, Candida krusei CCM 8271, Candida parapsilosis CCM 8260.
(§2) For the initial cultivation of the bacteria and fungi, Luria-Bertani broth (LB, Biomaxima, Lublin, Poland) and Sabouraud Dextrose broth (SB, Biomaxima, Lublin, Poland) were used, respectively. Antimicrobial properties of the compounds were analyzed through the determination of MIC (minimal inhibitory concentrations) by my means of the serial micro-dilution technique according to the guidelines of Clinical & Laboratory Standard Institute (CLSI) established for aerobic bacteria and yeasts.
(§3) According to the procedures, Mueller–Hinton broth (MHB) was used as the working medium for the analysis of the bacterial susceptibility, while RPMI-1640 (with L-glutamine, without sodium bicarbonate) growth medium buffered with MOPS (morpholinepropanesulfonic acid) and supplemented with 2% glucose was used for the experiments with the fungi.
(§4) The experiments were carried out for 24 h at 37 and 35 °C for the bacteria and fungi, respectively. Then, the absorbance was measured at 600 nm for each well of the 96-well plate using a microplate reader (Sunrise TM, Tecan Trading AG, Männedorf, Switzerland). Based on the obtained results, the degree of inhibition of the growth of microorganisms (expressed in %) in the presence of the tested compounds range was determined with respect to the control probes. Inoculated wells without peptide were treated as a positive control (100% growth), and the wells containing working medium only were defined as a negative control (0% growth). All measurements were repeated in triplicate.

S. epidermidis PCM2118 = format: cell-based, Staphylococcus epidermidis
Procedure: as §1, §2, §3, §4

S. epidermidis PCM521 = format: cell-based, Staphylococcus epidermidis
Procedure: as §1, §2, §3, §4

E. coli PCM2057 = format: cell-based, Escherichia coli
Procedure: as §1, §2, §3, §4

C. albicans PCM2566 = format: cell-based, Candida albicans
Procedure: as §1, §2, §3, §4

C. glabrata CCM8270 = format: cell-based, Candida glabrata
Procedure: as §1, §2, §3, §4

C. krusei CCM8271 = format: cell-based, Candida krusei
Procedure: as §1, §2, §3, §4

C. parapsilosis CCM 8260 = format: cell-based, Candida parapsilosis
Procedure: as §1, §2, §3, §4

S. aureus PCM1650 = format: cell-based, Staphylococcus aureus; conditions: Mueller–Hinton broth, inoculum 5 × 10^5 CFU/mL, 24 h, 37 °C, absorbance 600 nm, triplicate
Procedure: as §1, §2, §3, §4

[1] = Mueller–Hinton broth, inoculum 5 × 10^5 CFU/mL, 24 h, 37 °C, absorbance 600 nm, triplicate
[2] = RPMI-1640 with MOPS and 2% glucose, inoculum 5 × 10^3 CFU/mL, 24 h, 35 °C, absorbance 600 nm, triplicate

SMILES | MIC, S. aureus PCM2054 (S. aureus PCM2054; [1]) [µg/mL] | MIC, S. epidermidis PCM2118 (S. epidermidis PCM2118; [1]) [µg/mL] | MIC, S. epidermidis PCM521 (S. epidermidis PCM521; [1]) [µg/mL] | MIC, E. coli PCM2057 (E. coli PCM2057; [1]) [µg/mL] | MIC, C. albicans PCM2566 (C. albicans PCM2566; [2]) [µg/mL] | MIC, C. glabrata CCM8270 (C. glabrata CCM8270; [2]) [µg/mL] | MIC, C. krusei CCM8271 (C. krusei CCM8271; [2]) [µg/mL] | MIC, C. parapsilosis CCM 8260 (C. parapsilosis CCM 8260; [2]) [µg/mL] | MIC, S. aureus PCM2054 (S. aureus PCM2054; PCM2054, 24 h) [µg/mL] | MIC, S. epidermidis PCM2118 (S. epidermidis PCM2118; PCM2118, 24 h) [µg/mL] | MIC, S. epidermidis PCM521 (S. epidermidis PCM521; PCM521, 24 h) [µg/mL] | MIC, E. coli PCM2057 (E. coli PCM2057; PCM2057, 24 h) [µg/mL] | MIC, C. albicans PCM2566 (C. albicans PCM2566; PCM2566, 24 h) [µg/mL] | MIC, C. glabrata CCM8270 (C. glabrata CCM8270; CCM8270, 24 h) [µg/mL] | MIC, C. krusei CCM8271 (C. krusei CCM8271; CCM8271, 24 h) [µg/mL] | MIC, C. parapsilosis CCM 8260 (C. parapsilosis CCM 8260; CCM 8260, 24 h) [µg/mL] | MIC, S. aureus PCM1650 (S. aureus PCM1650) [µg/mL]
CCCCCCCCCCCC(=O)N[C@@H](CCCCN)C(=O)N[C@@H](CCCNC(=N)N)C(=O)N[C@@H](Cc1ccccc1)C(=O)N[C@@H](CCCCN)C(=O)N[C@@H](CCCCN)C(=O)N[C@@H](Cc1ccccc1)C(=O)N[C@@H](Cc1ccccc1)C(=O)N[C@@H](CCCCN)C(=O)N[C@@H](CCCCN)C(=O)N[C@@H](CC(C)C)C(=O)N[C@@H](CCCCN)C(N)=O [C12-ATRA-1] (Lauroyl-KRFKKFFKKLK-NH2) | 3.9 (≈ 2.32 µM) | 3.13 (≈ 1.86 µM) | 3.13 (≈ 1.86 µM) | 31.25 (≈ 18.6 µM) | 2.5 (≈ 1.49 µM) | 6.25 (≈ 3.72 µM) | 2.5 (≈ 1.49 µM) | 12.5 (≈ 7.44 µM) | – | – | – | – | – | – | – | – | –
CC[C@H](C)[C@H](N)C(=O)N[C@@H](CCCCN)C(=O)N[C@@H](CCCCN)C(=O)N[C@H](C(=O)N[C@@H](CC(C)C)C(=O)N[C@@H](CO)C(=O)N[C@@H](CCCCN)C(=O)N[C@H](C(=O)N[C@@H](CCCCN)C(=O)N[C@@H](CCCCN)C(=O)N[C@@H](CC(C)C)C(=O)N[C@@H](CC(C)C)C(=O)N[C@@H](CCCCN)C(N)=O)[C@@H](C)CC)[C@@H](C)CC [LK6, reference compound] (H-IKKILSKIKKLLK-NH2) | – | – | – | – | – | – | – | – | >50 | 6.25 (≈ 4.03 µM) | 6.25 (≈ 4.03 µM) | >50 | 50 (≈ 32.2 µM) | 31.25 (≈ 20.1 µM) | 12.5 (≈ 8.05 µM) | 12.5 (≈ 8.05 µM) | –
CCCCCCCCCC(=O)N[C@H](C(=O)N[C@@H](CCCCN)C(=O)N[C@@H](CCCCN)C(=O)N[C@H](C(=O)N[C@@H](CC(C)C)C(=O)N[C@@H](CO)C(=O)N[C@@H](CCCCN)C(=O)N[C@H](C(=O)N[C@@H](CCCCN)C(=O)N[C@@H](CCCCN)C(=O)N[C@@H](CC(C)C)C(=O)N[C@@H](CC(C)C)C(=O)N[C@@H](CCCCN)C(N)=O)[C@@H](C)CC)[C@@H](C)CC)[C@@H](C)CC [C10-LK6] (Decanoyl-IKKILSKIKKLLK-NH2) | – | – | – | – | – | – | – | – | 50 (≈ 29.3 µM) | 6.25 (≈ 3.66 µM) | 6.25 (≈ 3.66 µM) | >50 | 6.25 (≈ 3.66 µM) | 6.25 (≈ 3.66 µM) | 6.25 (≈ 3.66 µM) | 6.25 (≈ 3.66 µM) | –
CCCCCCCCCCCCCC(=O)N[C@H](C(=O)N[C@@H](CC(N)=O)C(=O)N[C@@H](Cc1c[nH]c2ccccc12)C(=O)N[C@@H](CCCCN)C(=O)N[C@@H](CCCCN)C(=O)N[C@H](C(=O)N[C@@H](CC(C)C)C(=O)NCC(=O)N[C@@H](CCCCN)C(=O)N[C@H](C(=O)N[C@H](C(=O)N[C@@H](CCCCN)C(=O)N[C@H](C(=O)N[C@@H](C)C(=O)N[C@@H](CCCCN)C(N)=O)C(C)C)[C@@H](C)CC)[C@@H](C)CC)C(C)C)C(C)C [C14-LL-I] (Myristoyl-VNWKKVLGKIIKVAK-NH2) | >50 | 12.5 (≈ 6.46 µM) | 12.5 (≈ 6.46 µM) | >50 | >50 | 12.5 (≈ 6.46 µM) | 12.5 (≈ 6.46 µM) | 3.13 (≈ 1.62 µM) | – | – | – | – | – | – | – | – | –
CC[C@H](C)[C@H](NC(=O)[C@H](CCCCN)NC(=O)CNC(=O)[C@H](CC(C)C)NC(=O)[C@@H](NC(=O)[C@H](CCCCN)NC(=O)[C@H](CCCCN)NC(=O)[C@H](Cc1c[nH]c2ccccc12)NC(=O)[C@H](CC(N)=O)NC(=O)[C@@H](N)C(C)C)C(C)C)C(=O)N[C@H](C(=O)N[C@@H](CCCCN)C(=O)N[C@H](C(=O)N[C@@H](C)C(=O)N[C@@H](CCCCN)C(N)=O)C(C)C)[C@@H](C)CC [LL-I, reference compound] (H-VNWKKVLGKIIKVAK-NH2) | >50 | 6.25 (≈ 3.63 µM) | 12.5 (≈ 7.25 µM) | 12.5 (≈ 7.25 µM) | >50 | >50 | 50 (≈ 29 µM) | 50 (≈ 29 µM) | – | – | – | – | – | – | – | – | 25 (≈ 14.5 µM)
CCCCCCCCCCCC(=O)N[C@H](C(=O)N[C@@H](CC(N)=O)C(=O)N[C@@H](Cc1c[nH]c2ccccc12)C(=O)N[C@@H](CCCCN)C(=O)N[C@@H](CCCCN)C(=O)N[C@H](C(=O)N[C@@H](CC(C)C)C(=O)NCC(=O)N[C@@H](CCCCN)C(=O)N[C@H](C(=O)N[C@H](C(=O)N[C@@H](CCCCN)C(=O)N[C@H](C(=O)N[C@@H](C)C(=O)N[C@@H](CCCCN)C(N)=O)C(C)C)[C@@H](C)CC)[C@@H](C)CC)C(C)C)C(C)C [C12-LL-I] (Lauroyl-VNWKKVLGKIIKVAK-NH2) | 12.5 (≈ 6.56 µM) | 6.25 (≈ 3.28 µM) | 12.5 (≈ 6.56 µM) | >50 | >50 | 12.5 (≈ 6.56 µM) | 12.5 (≈ 6.56 µM) | 3.13 (≈ 1.64 µM) | – | – | – | – | – | – | – | – | 12.5 (≈ 6.56 µM)
CCCCCCCCCCCCCCCC(=O)N[C@H](C(=O)N[C@@H](CCCCN)C(=O)N[C@@H](CCCCN)C(=O)N[C@H](C(=O)N[C@@H](CC(C)C)C(=O)N[C@@H](CO)C(=O)N[C@@H](CCCCN)C(=O)N[C@H](C(=O)N[C@@H](CCCCN)C(=O)N[C@@H](CCCCN)C(=O)N[C@@H](CC(C)C)C(=O)N[C@@H](CC(C)C)C(=O)N[C@@H](CCCCN)C(N)=O)[C@@H](C)CC)[C@@H](C)CC)[C@@H](C)CC [C16-LK6] (Palmitoyl-IKKILSKIKKLLK-NH2) | – | – | – | – | – | – | – | – | >50 | 50 (≈ 27.9 µM) | 50 (≈ 27.9 µM) | >50 | 6.25 (≈ 3.49 µM) | >50 | 25 (≈ 14 µM) | 50 (≈ 27.9 µM) | –
CCCCCCCCCCCCCCCC(=O)N[C@H](C(=O)N[C@@H](CC(N)=O)C(=O)N[C@@H](Cc1c[nH]c2ccccc12)C(=O)N[C@@H](CCCCN)C(=O)N[C@@H](CCCCN)C(=O)N[C@H](C(=O)N[C@@H](CC(C)C)C(=O)NCC(=O)N[C@@H](CCCCN)C(=O)N[C@H](C(=O)N[C@H](C(=O)N[C@@H](CCCCN)C(=O)N[C@H](C(=O)N[C@@H](C)C(=O)N[C@@H](CCCCN)C(N)=O)C(C)C)[C@@H](C)CC)[C@@H](C)CC)C(C)C)C(C)C [C16-LL-I] (Palmitoyl-VNWKKVLGKIIKVAK-NH2) | >50 | 25 (≈ 12.7 µM) | 25 (≈ 12.7 µM) | >50 | >50 | >50 | >50 | 12.5 (≈ 6.37 µM) | – | – | – | – | – | – | – | – | –
CCCCCCCCCCCCCC(=O)N[C@H](C(=O)N[C@@H](CCCCN)C(=O)N[C@@H](CCCCN)C(=O)N[C@H](C(=O)N[C@@H](CC(C)C)C(=O)N[C@@H](CO)C(=O)N[C@@H](CCCCN)C(=O)N[C@H](C(=O)N[C@@H](CCCCN)C(=O)N[C@@H](CCCCN)C(=O)N[C@@H](CC(C)C)C(=O)N[C@@H](CC(C)C)C(=O)N[C@@H](CCCCN)C(N)=O)[C@@H](C)CC)[C@@H](C)CC)[C@@H](C)CC [C14-LK6] (Myristoyl-IKKILSKIKKLLK-NH2) | – | – | – | – | – | – | – | – | 50 (≈ 28.4 µM) | 25 (≈ 14.2 µM) | 25 (≈ 14.2 µM) | >50 | 6.25 (≈ 3.55 µM) | 12.5 (≈ 7.09 µM) | 6.25 (≈ 3.55 µM) | 6.25 (≈ 3.55 µM) | –
